According to the supplement of paper PMC10331698:
± gives the standard deviation of the averaged measurements.

How the values were obtained:
Assay in all cases: level (log10 ratio to DMSO vehicle control); higher = higher biomarker level / cell amount than vehicle control
Conditions in all cases: in DMSO
[1] = compound: O=C(O)C(F)(F)C(F)(F)C(F)(F)C(F)(F)C(F)(F)C(F)(F)C(F)(F)C(F)(F)C(F)(F)C(F)(F)C(F)(F)C(F)(F)F [Perfluorotridecanoic acid]
Method: (§1)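 BioMAP Diversity Plus panel of 12 human primary cell co-culture systems (3C, 4H, LPS, SAg, BT, BF4T, BE3C, CASM3C, HDF3CGF, KF3CT, MyoF, Mphg). Compounds were added 1 h before stimulation and left for 24 h (MyoF 48 h; BT 72 h for soluble read-outs or 6 d for IgG). Biomarkers were read by ELISA, cytotoxicity by SRB, PBMC viability and proliferation by Alamar Blue. Each well value was divided by the mean of 8 DMSO control wells on the same plate and log10 transformed; duplicate blinded samples were tested at 4 concentrations.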

[2] = compound: O=C(O)C(F)(F)C(F)(F)C(F)(F)C(F)(F)C(F)(F)C(F)(F)C(F)(F)C(F)(F)C(F)(F)C(F)(F)C(F)(F)C(F)(F)C(F)(F)F [Perfluorotetradecanoic acid]
Method: as §1

[3] = compound: O=S(=O)(O)C(F)(F)C(F)(F)C(F)(F)C(F)(F)F [Perfluorobutanesulfonic acid]
Method: as §1

Azathioprine = compound: Cn1cnc([N+](=O)[O-])c1Sc1ncnc2[nH]cnc12 [Azathioprine]
Method: as §1

[4] = compound: O=C(O)C(F)(F)OC(F)(F)C(F)(F)OC(F)(F)C(F)(F)C(F)(F)C(F)(F)F [Perfluoro-3,6-dioxadecanoic acid]
Method: as §1

Perfluorooctanamidine = compound: N=C(N)C(F)(F)C(F)(F)C(F)(F)C(F)(F)C(F)(F)C(F)(F)C(F)(F)F [Perfluorooctanamidine]
Method: as §1

Test System | level (log10) ([1]; 1500 nM) | level (log10) ([1]; 4400 nM) | level (log10) ([1]; 13000 nM) | level (log10) ([1]; 40000 nM) | level (log10) ([2]; 6700 nM) | level (log10) ([2]; 20000 nM) | level (log10) ([3]; 6700 nM) | level (log10) ([3]; 20000 nM) | level (log10) ([3]; 60000 nM) | level (log10) (Azathioprine; 1400 nM) | level (log10) (Azathioprine; 4200 nM) | level (log10) (Azathioprine; 13000 nM) | level (log10) (Azathioprine; 38000 nM) | level (log10) ([4]; 6700 nM) | level (log10) ([4]; 20000 nM) | level (log10) ([4]; 60000 nM) | level (log10) (Perfluorooctanamidine; 6700 nM) | level (log10) (Perfluorooctanamidine; 20000 nM) | level (log10) (Perfluorooctanamidine; 60000 nM)
MyoF:CD106/VCAM-1 | -0.0105 ± 0.0078 | 0.01 ± 0.0071 | -0.003 ± 0.0085 | 0.0035 ± 0.033 | -0.0045 ± 0.019 | 0.013 ± 0.025 | -0.004 ± 0.0028 | 0.0085 ± 0.0021 | 0.0155 ± 0.016 | -0.01 ± 0.0099 | 0.008 | -0.0165 ± 0.005 | -0.022 ± 0.014 | -0.0055 ± 0.00071 | -0.0285 ± 0.026 | -0.045 ± 0.021 | 0.0115 ± 0.026 | -0.002 ± 0.018 | 0.011
lMphg:CXCL8/IL-8 | -0.0575 ± 0.0021 | -0.0665 ± 0.012 | -0.0245 ± 0.00071 | -0.0175 ± 0.021 | 0.0035 ± 0.032 | 0.0215 ± 0.049 | 0.022 ± 0.0028 | 0.06 ± 0.0085 | 0.183 ± 0.0099 | -0.0045 ± 0.047 | -0.042 ± 0.021 | 0.0375 ± 0.0064 | 0.0825 ± 0.019 | 0.01 ± 0.0057 | 0.0595 ± 0.025 | 0.0695 ± 0.021 | 0.011 | 0.0425 ± 0.019 | 0.175
CASM3C:CD87/uPAR | 0.0185 ± 0.011 | 0.028 ± 0.0014 | -0.01 ± 0.013 | 0.0015 ± 0.019 | -0.0305 ± 0.057 | -0.0375 ± 0.026 | -0.0275 ± 0.03 | -0.047 ± 0.045 | -0.0575 ± 0.0092 | 0.0115 ± 0.0021 | 0.014 ± 0.0099 | -0.002 ± 0.067 | -0.0325 ± 0.0035 | 0.001 ± 0.0014 | -0.0055 ± 0.0064 | -0.0175 ± 0.025 | -0.011 ± 0.016 | -0.02 ± 0.037 | -0.034
CASM3C:CD106/VCAM-1 | -0.017 ± 0.05 | -0.0515 ± 0.015 | -0.167 ± 0.083 | -0.22 ± 0.054 | -0.023 ± 0.041 | -0.0065 ± 0.073 | -0.0465 ± 0.021 | -0.0255 ± 0.025 | -0.033 ± 0.0057 | -0.0125 ± 0.022 | -0.0155 ± 0.0092 | -0.0485 ± 0.018 | -0.136 ± 0.023 | 0.001 ± 0.011 | -0.0145 ± 0.0092 | 0.0065 ± 0.037 | -0.0165 ± 0.00071 | -0.0195 ± 0.012 | -0.032
lMphg:SRB-Mphg | 0.003 ± 0.023 | 0.004 ± 0.0071 | -0.0155 ± 0.022 | 0.0125 ± 0.019 | 0.0035 ± 0.011 | 0.006 ± 0.031 | 0.01 ± 0.018 | 0.0045 ± 0.015 | -0.0005 ± 0.012 | -0.001 ± 0.031 | -0.0085 ± 0.0021 | -0.0155 ± 0.011 | -0.0235 ± 0.0021 | 0.012 ± 0.016 | 0.014 ± 0.024 | -0.0125 ± 0.03 | 0.0145 ± 0.011 | 0.009 ± 0.014 | 0.007
lMphg:CCL3/MIP-1alpha | 0.0065 ± 0.023 | -0.0135 ± 0.013 | 0.004 ± 0.021 | 0.0345 ± 0.032 | -0.02 ± 0.042 | -0.004 ± 0.02 | -0.0305 ± 0.016 | -0.0395 ± 0.005 | -0.0135 ± 0.0092 | -0.0005 ± 0.00071 | -0.0235 ± 0.021 | -0.0225 ± 0.03 | -0.0975 ± 0.029 | -0.022 ± 0.064 | -0.0215 ± 0.049 | -0.0545 ± 0.054 | -0.029 ± 0.03 | 0.0015 ± 0.035 | 0.055
CASM3C:CXCL8/IL-8 | 0.002 ± 0.037 | -0.003 ± 0.025 | -0.014 ± 0.037 | -0.0155 ± 0.0021 | 0.012 ± 0.016 | 0.016 ± 0.028 | 0.0255 ± 0.049 | 0.0255 ± 0.025 | 0.0375 ± 0.025 | -0.0095 ± 0.0064 | -0.023 ± 0.0085 | -0.023 ± 0.0057 | -0.009 ± 0.024 | -0.0005 ± 0.013 | -0.008 | 0.023 ± 0.028 | 0.011 ± 0.017 | 0.0075 ± 0.0092 | 0.053
MyoF:SRB | 0.0015 ± 0.0064 | 0.002 ± 0.0014 | 0.0005 ± 0.0021 | 0.002 ± 0.0042 | 0.0025 ± 0.0021 | 0.0055 ± 0.0078 | -0.002 ± 0.0071 | -0.0035 ± 0.00071 | 0.0085 ± 0.00071 | -0.0055 ± 0.0092 | 0.0015 ± 0.0021 | 0.0005 ± 0.0035 | -0.015 ± 0.0057 | 0 | -0.002 | -0.0515 ± 0.0092 | 0.007 ± 0.0028 | -0.003 ± 0.0042 | 0.013
KF3CT:CCL2/MCP-1 | 0.003 ± 0.076 | -0.007 ± 0.02 | -0.021 ± 0.031 | 0.018 ± 0.0042 | 0.004 ± 0.0071 | 0.0205 ± 0.0078 | -0.032 ± 0.017 | -0.0095 ± 0.026 | 0.0135 ± 0.083 | -0.0045 ± 0.0092 | -0.008 ± 0.0099 | -0.0335 ± 0.015 | -0.015 ± 0.0014 | -0.0115 ± 0.018 | -0.014 ± 0.0071 | -0.08 ± 0.0042 | -0.0075 ± 0.0064 | 0.029 ± 0.0099 | 0.092
CASM3C:PAI-I | 0.005 ± 0.0085 | 0 ± 0.011 | 0.0135 ± 0.013 | 0.01 ± 0.0057 | 0.007 ± 0.0028 | 0.013 ± 0.0014 | -0.0095 ± 0.012 | 0.0035 ± 0.0064 | 0.007 ± 0.0099 | -0.0045 ± 0.0021 | 0.007 ± 0.0057 | 0.007 ± 0.0014 | 0.01 ± 0.0042 | 0.001 ± 0.0042 | 0.003 ± 0.0071 | 0.011 ± 0.011 | 0.0055 ± 0.012 | 0.0015 ± 0.0064 | 0.022
